pIC50, pKi: −log10 of the molar value. Blank lines part the entries; values can stand above or below the molecule they belong to.
Legend:
[1] = molecular target: T1, Muscarinic acetylcholine receptor M1 (Homo sapiens, UniProt P11229)
T1 sequence (P11229 whole entry): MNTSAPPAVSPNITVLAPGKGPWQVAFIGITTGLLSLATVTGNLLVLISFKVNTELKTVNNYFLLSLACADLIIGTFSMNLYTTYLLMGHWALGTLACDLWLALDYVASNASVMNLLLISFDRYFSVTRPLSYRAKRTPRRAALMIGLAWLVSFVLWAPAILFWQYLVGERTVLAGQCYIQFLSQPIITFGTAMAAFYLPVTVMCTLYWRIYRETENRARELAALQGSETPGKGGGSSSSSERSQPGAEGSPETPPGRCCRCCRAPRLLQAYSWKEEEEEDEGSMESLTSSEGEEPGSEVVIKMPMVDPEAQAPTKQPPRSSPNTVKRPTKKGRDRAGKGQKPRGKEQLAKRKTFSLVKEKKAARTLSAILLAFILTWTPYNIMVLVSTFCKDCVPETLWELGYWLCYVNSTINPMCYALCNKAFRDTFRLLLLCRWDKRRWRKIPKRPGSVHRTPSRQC
Description: Binding affinity towards muscarinic M1 receptor

[2] = molecular target: T2, Endothelin-1 receptor (Homo sapiens, UniProt P25101)
T2 sequence (P25101 whole entry): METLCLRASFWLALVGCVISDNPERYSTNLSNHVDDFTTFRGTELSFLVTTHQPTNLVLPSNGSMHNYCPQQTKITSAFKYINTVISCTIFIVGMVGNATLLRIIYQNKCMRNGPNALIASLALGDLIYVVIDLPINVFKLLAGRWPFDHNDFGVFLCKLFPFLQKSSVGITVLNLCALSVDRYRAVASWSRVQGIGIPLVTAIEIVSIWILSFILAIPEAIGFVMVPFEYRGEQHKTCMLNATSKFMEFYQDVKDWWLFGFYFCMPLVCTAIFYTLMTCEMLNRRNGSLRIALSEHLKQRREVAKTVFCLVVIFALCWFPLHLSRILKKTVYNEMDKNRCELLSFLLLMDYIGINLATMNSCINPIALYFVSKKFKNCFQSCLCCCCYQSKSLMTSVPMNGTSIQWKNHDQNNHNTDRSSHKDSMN
Description: Binding affinity against human Endothelin A receptor

[3] = molecular target: T3, Endothelin receptor type B (Homo sapiens, UniProt P24530)
T3 sequence (P24530 whole entry): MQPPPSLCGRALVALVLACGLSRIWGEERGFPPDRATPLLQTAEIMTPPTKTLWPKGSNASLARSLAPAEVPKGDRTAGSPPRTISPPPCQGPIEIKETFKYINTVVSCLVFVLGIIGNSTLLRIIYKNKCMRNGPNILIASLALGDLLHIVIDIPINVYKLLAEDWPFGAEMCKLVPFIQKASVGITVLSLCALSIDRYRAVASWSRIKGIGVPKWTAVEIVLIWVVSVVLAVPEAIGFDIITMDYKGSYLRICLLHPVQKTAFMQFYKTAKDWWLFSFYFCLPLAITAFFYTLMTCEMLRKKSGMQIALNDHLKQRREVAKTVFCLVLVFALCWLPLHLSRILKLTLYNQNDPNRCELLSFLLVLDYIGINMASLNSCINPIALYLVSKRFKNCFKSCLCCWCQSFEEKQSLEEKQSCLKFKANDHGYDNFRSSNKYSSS

[4] = molecular target: T4, Acetylcholinesterase (Electrophorus electricus, UniProt O42275); assay type: functional
Description: (§1) Inhibitory concentration towards acetylcholinesterase in electric eel

[5] = organism: Rattus norvegicus; assay type: functional
Description: Dose required for oral activity in rats

[6] = in vivo; conditions: rat
[7] = molecular target: T2, Endothelin-1 receptor; remark: listed apart in the source
Description: (§2) Inhibitory concentration against Endothelin A receptor

[8] = molecular target: D(4) dopamine receptor (Homo sapiens, UniProt P21917)
Description: Binding affinity against human Dopamine receptor D4 versus hD2, hD3 receptor

[9] = organism: Homo sapiens; assay: cells; assay type: functional, organism-based
Description: Antiviral activity against human respiratory syncytial virus (RSV)

[10] = molecular target: T5, Potassium voltage-gated channel subfamily KQT member 1 (Cavia porcellus, UniProt O70344); assay type: cell-based, Oocyte
T5 sequence (O70344 whole entry): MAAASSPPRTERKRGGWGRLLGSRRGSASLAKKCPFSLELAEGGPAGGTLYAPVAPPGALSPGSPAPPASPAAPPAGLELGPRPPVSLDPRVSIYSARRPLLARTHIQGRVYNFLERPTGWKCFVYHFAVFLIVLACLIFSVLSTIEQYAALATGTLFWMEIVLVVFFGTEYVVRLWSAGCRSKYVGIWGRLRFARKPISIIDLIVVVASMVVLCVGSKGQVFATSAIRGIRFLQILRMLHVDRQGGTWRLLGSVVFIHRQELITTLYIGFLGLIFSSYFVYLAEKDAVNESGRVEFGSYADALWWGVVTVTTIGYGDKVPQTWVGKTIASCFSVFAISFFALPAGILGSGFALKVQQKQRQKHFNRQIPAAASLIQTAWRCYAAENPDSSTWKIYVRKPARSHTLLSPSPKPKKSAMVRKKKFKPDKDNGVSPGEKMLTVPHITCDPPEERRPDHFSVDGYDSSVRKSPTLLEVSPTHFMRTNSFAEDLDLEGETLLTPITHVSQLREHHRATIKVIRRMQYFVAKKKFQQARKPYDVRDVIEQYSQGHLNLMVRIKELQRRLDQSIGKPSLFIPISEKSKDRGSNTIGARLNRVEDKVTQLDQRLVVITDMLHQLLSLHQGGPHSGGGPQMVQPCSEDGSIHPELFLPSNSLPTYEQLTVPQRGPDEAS
Description: (§3) Inhibition of guinea pig Iks potassium channel expressed in Xenopus oocytes

[11] = molecular target: T5, Potassium voltage-gated channel subfamily KQT member 1; assay type: functional, cell-based, Oocyte
Description: as §3

[12] = molecular target: T4, Acetylcholinesterase
Description: as §1

[13] = molecular target: D(3) dopamine receptor (Homo sapiens, UniProt P35462)
Description: Binding affinity against Dopamine receptor D3

[14] = molecular target: T6, Adrenergic receptor alpha-1 (Homo sapiens, UniProt P35348+P25100+P35368)
T6 sequence (P35348 whole entry): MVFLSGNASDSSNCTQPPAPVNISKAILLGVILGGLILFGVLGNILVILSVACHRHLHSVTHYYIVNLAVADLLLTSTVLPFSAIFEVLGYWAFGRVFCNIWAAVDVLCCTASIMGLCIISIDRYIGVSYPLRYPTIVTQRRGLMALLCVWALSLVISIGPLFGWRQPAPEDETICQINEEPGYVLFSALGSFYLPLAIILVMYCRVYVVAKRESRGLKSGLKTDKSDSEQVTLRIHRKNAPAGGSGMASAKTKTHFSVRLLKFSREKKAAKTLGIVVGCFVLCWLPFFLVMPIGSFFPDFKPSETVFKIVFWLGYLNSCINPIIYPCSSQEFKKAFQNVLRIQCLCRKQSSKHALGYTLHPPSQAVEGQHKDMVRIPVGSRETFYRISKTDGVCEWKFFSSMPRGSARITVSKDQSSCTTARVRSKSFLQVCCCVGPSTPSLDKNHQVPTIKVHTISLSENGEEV
T6 sequence (P25100 whole entry): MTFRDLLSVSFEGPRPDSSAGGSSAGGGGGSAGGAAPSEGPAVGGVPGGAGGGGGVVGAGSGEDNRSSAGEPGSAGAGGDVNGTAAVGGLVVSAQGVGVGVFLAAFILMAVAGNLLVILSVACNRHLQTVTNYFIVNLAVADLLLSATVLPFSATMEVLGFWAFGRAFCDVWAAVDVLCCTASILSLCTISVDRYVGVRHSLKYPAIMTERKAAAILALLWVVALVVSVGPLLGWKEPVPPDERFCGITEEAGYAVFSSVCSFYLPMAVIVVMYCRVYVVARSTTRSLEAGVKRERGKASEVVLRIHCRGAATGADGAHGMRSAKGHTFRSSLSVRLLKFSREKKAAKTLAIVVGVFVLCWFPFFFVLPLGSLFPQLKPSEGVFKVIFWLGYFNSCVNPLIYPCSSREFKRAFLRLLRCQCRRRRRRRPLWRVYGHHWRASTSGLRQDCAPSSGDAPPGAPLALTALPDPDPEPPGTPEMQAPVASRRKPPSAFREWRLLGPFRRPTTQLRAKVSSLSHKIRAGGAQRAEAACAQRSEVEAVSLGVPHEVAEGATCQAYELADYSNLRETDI
T6 sequence (P35368 whole entry): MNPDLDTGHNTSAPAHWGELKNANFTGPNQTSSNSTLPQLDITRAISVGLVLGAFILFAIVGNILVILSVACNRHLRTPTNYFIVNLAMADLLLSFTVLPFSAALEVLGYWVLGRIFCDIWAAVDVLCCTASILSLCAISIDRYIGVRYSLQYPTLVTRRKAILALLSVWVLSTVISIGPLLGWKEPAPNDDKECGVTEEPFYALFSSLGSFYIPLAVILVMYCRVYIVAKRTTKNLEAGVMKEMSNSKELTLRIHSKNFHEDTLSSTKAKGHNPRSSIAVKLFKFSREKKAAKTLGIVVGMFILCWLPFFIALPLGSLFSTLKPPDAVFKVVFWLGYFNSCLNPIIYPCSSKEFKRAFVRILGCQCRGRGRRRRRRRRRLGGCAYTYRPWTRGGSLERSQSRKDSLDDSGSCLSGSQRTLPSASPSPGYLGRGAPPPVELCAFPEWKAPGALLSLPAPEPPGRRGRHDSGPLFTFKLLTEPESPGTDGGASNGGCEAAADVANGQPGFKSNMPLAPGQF
Description: Binding affinity towards human alpha-1 adrenergic receptor

[15] = molecular target: Muscarinic acetylcholine receptor; assay type: protein assay
Description: (§4) Binding affinity towards human muscarinic receptor

[16] = molecular target: T2, Endothelin-1 receptor; remark: listed apart in the source
Description: as §2

[17] = molecular target: T7, Muscarinic acetylcholine receptor M4 (Homo sapiens, UniProt P08173)
T7 sequence (P08173 whole entry): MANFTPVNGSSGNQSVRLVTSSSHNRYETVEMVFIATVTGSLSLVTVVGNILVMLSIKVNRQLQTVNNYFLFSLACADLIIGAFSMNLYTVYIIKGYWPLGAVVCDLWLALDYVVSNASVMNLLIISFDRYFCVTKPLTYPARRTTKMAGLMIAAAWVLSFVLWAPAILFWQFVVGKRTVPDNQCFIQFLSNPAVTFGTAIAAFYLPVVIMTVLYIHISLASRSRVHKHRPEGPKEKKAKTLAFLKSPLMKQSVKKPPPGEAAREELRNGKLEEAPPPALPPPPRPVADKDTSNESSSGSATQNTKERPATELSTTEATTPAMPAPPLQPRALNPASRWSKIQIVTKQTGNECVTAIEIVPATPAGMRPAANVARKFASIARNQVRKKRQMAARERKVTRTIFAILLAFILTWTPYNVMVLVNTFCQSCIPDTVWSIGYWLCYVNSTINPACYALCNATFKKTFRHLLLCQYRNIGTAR
Description: as §4

T4 sequence (O42275 whole entry): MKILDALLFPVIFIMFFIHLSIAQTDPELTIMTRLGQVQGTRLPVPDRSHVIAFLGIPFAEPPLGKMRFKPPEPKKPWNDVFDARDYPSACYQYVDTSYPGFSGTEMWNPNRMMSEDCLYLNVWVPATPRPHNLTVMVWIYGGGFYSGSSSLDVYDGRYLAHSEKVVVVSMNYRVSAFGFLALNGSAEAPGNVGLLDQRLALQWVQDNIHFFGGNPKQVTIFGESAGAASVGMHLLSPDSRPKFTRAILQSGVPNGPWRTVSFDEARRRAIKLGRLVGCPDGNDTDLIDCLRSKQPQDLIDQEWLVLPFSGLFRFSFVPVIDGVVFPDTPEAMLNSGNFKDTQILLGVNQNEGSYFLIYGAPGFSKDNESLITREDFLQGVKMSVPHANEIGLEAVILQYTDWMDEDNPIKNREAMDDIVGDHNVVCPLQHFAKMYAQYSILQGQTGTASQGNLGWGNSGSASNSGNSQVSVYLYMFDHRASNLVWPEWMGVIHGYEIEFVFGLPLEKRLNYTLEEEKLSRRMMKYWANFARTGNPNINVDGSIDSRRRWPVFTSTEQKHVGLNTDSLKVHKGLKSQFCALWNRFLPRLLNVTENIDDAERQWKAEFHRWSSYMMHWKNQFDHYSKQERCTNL
Chain of D(4) dopamine receptor (P21917 whole entry, looked up): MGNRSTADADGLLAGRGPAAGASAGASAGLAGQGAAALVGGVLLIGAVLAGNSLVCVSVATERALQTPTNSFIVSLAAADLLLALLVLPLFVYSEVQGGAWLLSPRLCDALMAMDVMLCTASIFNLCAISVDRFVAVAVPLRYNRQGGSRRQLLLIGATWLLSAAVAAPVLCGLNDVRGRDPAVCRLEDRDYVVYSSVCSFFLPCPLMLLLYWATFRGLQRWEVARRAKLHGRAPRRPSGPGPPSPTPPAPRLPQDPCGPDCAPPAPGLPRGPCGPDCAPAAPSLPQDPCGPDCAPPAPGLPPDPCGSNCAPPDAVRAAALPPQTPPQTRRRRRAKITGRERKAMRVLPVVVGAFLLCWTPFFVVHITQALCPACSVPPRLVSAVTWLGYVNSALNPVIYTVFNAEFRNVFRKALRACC
Chain of D(3) dopamine receptor (P35462 whole entry): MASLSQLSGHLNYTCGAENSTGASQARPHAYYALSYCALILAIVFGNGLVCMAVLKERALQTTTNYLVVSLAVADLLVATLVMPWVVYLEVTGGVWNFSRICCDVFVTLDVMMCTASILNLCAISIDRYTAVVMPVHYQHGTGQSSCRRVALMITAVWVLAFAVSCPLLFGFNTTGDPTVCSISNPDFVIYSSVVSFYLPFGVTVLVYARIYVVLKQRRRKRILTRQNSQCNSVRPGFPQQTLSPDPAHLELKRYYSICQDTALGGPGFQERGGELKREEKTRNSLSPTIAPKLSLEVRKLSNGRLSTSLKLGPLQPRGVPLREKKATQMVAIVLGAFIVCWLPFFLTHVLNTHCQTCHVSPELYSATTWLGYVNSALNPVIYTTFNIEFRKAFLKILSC

SMILES: Cc1cc(NCCN2CCOCC2)nnc1-c1ccccc1
pKi [1]: 6.26

pKi [2]: 6.80
pKi [3]: 5.33
SMILES: COc1cc(OC)nc(CC(C(=O)O)C(C)(Oc2ccc(SC)cc2)c2ccccc2)n1 (configuration not stated)

SMILES: c1ccc(-c2ccc(NCCCCN3CCc4ccccc4C3)nn2)cc1
pIC50 [4]: 5.72

SMILES: Cc1cc(NCCN2C3CCCC2CC3)nnc1-c1ccccc1
pKi [1]: 7.30

bioavailability [6]: 100%
pKi [7]: 11.00
SMILES: Cc1noc(NS(=O)(=O)c2ccccc2-c2ccc(-c3ncco3)cc2CNC(=O)CC(C)(C)C)c1C
Dose [5]: 3 µM/kg

SMILES: Cc1cc(NCCN2C3CCCC2CC3)nnc1-c1ccccc1O
pKi [1]: 8.52

SMILES: c1ccc(-c2ccc(NCCN3CCCCC3)nn2)cc1
pIC50 [4]: 4.89

pKi [8]: 8.25
SMILES: COc1cccc(CN2CC[C@H](NC(=O)c3cc(Cl)c(NC(=O)C4CC4)cc3OC)C2)c1

pKi [2]: 6.60
pKi [3]: 5.52
SMILES: COc1cc(OC)nc(CC(C(=O)O)C(C)(Oc2ccc(C(C)C)cc2)c2ccccc2)n1 (configuration not stated)

pIC50 [9]: 7.30
SMILES: NC(=O)CCN(CCC(N)=O)S(=O)(=O)c1cccc(Nc2nc(Nc3cccc(S(=O)(=O)N(CCC(N)=O)CCC(N)=O)c3)nc(Nc3ccc(-c4ccc(Nc5nc(Nc6cccc(S(=O)(=O)N(CCC(N)=O)CCC(N)=O)c6)nc(Nc6cccc(S(=O)(=O)N(CCC(N)=O)CCC(N)=O)c6)n5)cc4S(=O)(=O)O)c(S(=O)(=O)O)c3)n2)c1

pIC50 [9]: 6.82
SMILES: NC(=O)CCN(CCC(N)=O)S(=O)(=O)c1cccc(Nc2nc(Nc3cccc(S(=O)(=O)N(CCC(N)=O)CCC(N)=O)c3)nc(Nc3ccc(/C=C/c4ccc(Nc5nc(Nc6cccc(S(=O)(=O)N(CCC(N)=O)CCC(N)=O)c6)nc(Nc6cccc(S(=O)(=O)N(CCC(N)=O)CCC(N)=O)c6)n5)cc4S(=O)(=O)O)c(S(=O)(=O)O)c3)n2)c1

pIC50 [10]: 5.30
SMILES: CCS(=O)(=O)N(C)C1c2cc(C#N)ccc2OC(C)(C)[C@@H]1O (single isomer, unassigned)

pIC50 [10]: 4.41
pIC50 [11]: 5.21
SMILES: CCS(=O)(=O)N(C)C1c2cc(C#N)ccc2OC(C)(C)[C@H]1O (single isomer, unassigned)

SMILES: Cc1cc(-c2ccccc2)nnc1NCCN1CCOCC1 [MINAPRINE]
pKi [1]: 4.77
pIC50 [12]: 3.22

pKi [13]: 9.96
SMILES: CCCCN1CCCC1CNC(=O)c1cc(C#N)c2ccccc2c1OC (configuration not stated) [NAFADOTRIDE]

SMILES: O=C1NCCN1CCN1CCC(c2cn(-c3ccc(F)cc3)c3ccc(Cl)cc23)CC1 [SERTINDOLE]
Ki [14]: 1.8 nM
Ki [15]: > 5000 nM

pIC50 [16]: 4.16
SMILES: Nc1ccc(S(=O)(=O)Nc2nccs2)cc1 [SULFATHIAZOLE]

Ki [14]: 12 nM
Ki [15]: > 5000 nM
SMILES: O=C1Cc2cc(CCN3CCN(c4nsc5ccccc45)CC3)c(Cl)cc2N1 [ZIPRASIDONE]

pKi [17]: 6.26
SMILES: CN(C)CCOC1=Cc2ccccc2Sc2ccc(Cl)cc21 [ZOTEPINE]

— ChEMBL document CHEMBL1149193, “Selective optimization of side activities: another way for drug discovery” (J Med Chem, 2004)
